Experimental data taken from the supplement of paper PMC8612539.
In brackets after ≈: the same amount, converted by molar mass.

Tested on: Mannheimia haemolytica
Assay: minimum inhibitory concentration (MIC)
Method: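 Broth microdilution MIC (Sensititre BOPO7F bovine plate, CLSI methods) of 19 antimicrobials against field isolates of P. multocida, M. haemolytica, H. somni (deep nasopharyngeal swabs) and E. coli, Enterococcus spp. (rectal swabs) from weaned dairy heifers. Incubation 16-24 h at 35 C. MIC is the lowest concentration preventing visible growth. Values with <= or > lie at the tested range limits. Trimethoprim-sulfamethoxazole is given as the trimethoprim component of a 1:19 mixture.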

CO/N=C(\C(=O)N[C@@H]1C(=O)N2C(C(=O)O)=C(CSC(=O)c3ccco3)CS[C@H]12)c1csc(N)n1 [Ceftiofur]
minimum inhibitory concentration (isolate (source animal id): 8): ≤ 0.25 µg/mL
minimum inhibitory concentration (isolate (source animal id): 13): ≤ 0.25 µg/mL
minimum inhibitory concentration (isolate (source animal id): 18): ≤ 0.25 µg/mL
minimum inhibitory concentration (isolate (source animal id): 21): ≤ 0.25 µg/mL
minimum inhibitory concentration (isolate (source animal id): 25): ≤ 0.25 µg/mL
minimum inhibitory concentration (isolate (source animal id): 27): ≤ 0.25 µg/mL
minimum inhibitory concentration (isolate (source animal id): 28): 2 µg/mL (≈ 3.82 µM)
minimum inhibitory concentration (isolate (source animal id): 30): ≤ 0.25 µg/mL
minimum inhibitory concentration (isolate (source animal id): 31): ≤ 0.25 µg/mL
minimum inhibitory concentration (isolate (source animal id): 32): ≤ 0.25 µg/mL
minimum inhibitory concentration (isolate (source animal id): 34): ≤ 0.25 µg/mL
minimum inhibitory concentration (isolate (source animal id): 36): ≤ 0.25 µg/mL
minimum inhibitory concentration (isolate (source animal id): 37): ≤ 0.25 µg/mL
minimum inhibitory concentration (isolate (source animal id): 40): ≤ 0.25 µg/mL
minimum inhibitory concentration (isolate (source animal id): 41): ≤ 0.25 µg/mL
minimum inhibitory concentration (isolate (source animal id): 43): ≤ 0.25 µg/mL
minimum inhibitory concentration (isolate (source animal id): 46): ≤ 0.25 µg/mL
minimum inhibitory concentration (isolate (source animal id): 49): ≤ 0.25 µg/mL
minimum inhibitory concentration (isolate (source animal id): 50): ≤ 0.25 µg/mL
minimum inhibitory concentration (isolate (source animal id): 51): ≤ 0.25 µg/mL
minimum inhibitory concentration (isolate (source animal id): 52): ≤ 0.25 µg/mL
minimum inhibitory concentration (isolate (source animal id): 53): ≤ 0.25 µg/mL
minimum inhibitory concentration (isolate (source animal id): 55): ≤ 0.25 µg/mL
minimum inhibitory concentration (isolate (source animal id): 56): ≤ 0.25 µg/mL
minimum inhibitory concentration (isolate (source animal id): 57): ≤ 0.25 µg/mL
minimum inhibitory concentration (isolate (source animal id): 100): ≤ 0.25 µg/mL
minimum inhibitory concentration (isolate (source animal id): 103): ≤ 0.25 µg/mL
minimum inhibitory concentration (isolate (source animal id): 107): ≤ 0.25 µg/mL
minimum inhibitory concentration (isolate (source animal id): 108): ≤ 0.25 µg/mL
minimum inhibitory concentration (isolate (source animal id): 112): ≤ 0.25 µg/mL
minimum inhibitory concentration (isolate (source animal id): 113): ≤ 0.25 µg/mL
minimum inhibitory concentration (isolate (source animal id): 121): ≤ 0.25 µg/mL
minimum inhibitory concentration (isolate (source animal id): 122): ≤ 0.25 µg/mL
minimum inhibitory concentration (isolate (source animal id): 123): ≤ 0.25 µg/mL
minimum inhibitory concentration (isolate (source animal id): 126): ≤ 0.25 µg/mL
minimum inhibitory concentration (isolate (source animal id): 133): ≤ 0.25 µg/mL
minimum inhibitory concentration (isolate (source animal id): 135): ≤ 0.25 µg/mL
minimum inhibitory concentration (isolate (source animal id): 138): ≤ 0.25 µg/mL
minimum inhibitory concentration (isolate (source animal id): 141): ≤ 0.25 µg/mL
minimum inhibitory concentration (isolate (source animal id): 142): ≤ 0.25 µg/mL
minimum inhibitory concentration (isolate (source animal id): 145): ≤ 0.25 µg/mL
minimum inhibitory concentration (isolate (source animal id): 149): ≤ 0.25 µg/mL
minimum inhibitory concentration (isolate (source animal id): 151): ≤ 0.25 µg/mL
minimum inhibitory concentration (isolate (source animal id): 152): ≤ 0.25 µg/mL
minimum inhibitory concentration (isolate (source animal id): 154): ≤ 0.25 µg/mL
minimum inhibitory concentration (isolate (source animal id): 159): ≤ 0.25 µg/mL
minimum inhibitory concentration (isolate (source animal id): 162): ≤ 0.25 µg/mL
minimum inhibitory concentration (isolate (source animal id): 170): ≤ 0.25 µg/mL
minimum inhibitory concentration (isolate (source animal id): 171): ≤ 0.25 µg/mL
minimum inhibitory concentration (isolate (source animal id): 172): ≤ 0.25 µg/mL
minimum inhibitory concentration (isolate (source animal id): 173): ≤ 0.25 µg/mL
minimum inhibitory concentration (isolate (source animal id): 179): ≤ 0.25 µg/mL
minimum inhibitory concentration (isolate (source animal id): 180): ≤ 0.25 µg/mL
minimum inhibitory concentration (isolate (source animal id): 183): ≤ 0.25 µg/mL
minimum inhibitory concentration (isolate (source animal id): 186): ≤ 0.25 µg/mL
minimum inhibitory concentration (isolate (source animal id): 187): ≤ 0.25 µg/mL
minimum inhibitory concentration (isolate (source animal id): 188): ≤ 0.25 µg/mL
minimum inhibitory concentration (isolate (source animal id): 190): ≤ 0.25 µg/mL
minimum inhibitory concentration (isolate (source animal id): 191): ≤ 0.25 µg/mL
minimum inhibitory concentration (isolate (source animal id): 192): ≤ 0.25 µg/mL
minimum inhibitory concentration (isolate (source animal id): 201): ≤ 0.25 µg/mL
minimum inhibitory concentration (isolate (source animal id): 202): ≤ 0.25 µg/mL
minimum inhibitory concentration (isolate (source animal id): 209): ≤ 0.25 µg/mL
minimum inhibitory concentration (isolate (source animal id): 211): ≤ 0.25 µg/mL
minimum inhibitory concentration (isolate (source animal id): 220): ≤ 0.25 µg/mL
minimum inhibitory concentration (isolate (source animal id): 221): ≤ 0.25 µg/mL
minimum inhibitory concentration (isolate (source animal id): 223): ≤ 0.25 µg/mL
minimum inhibitory concentration (isolate (source animal id): 233): ≤ 0.25 µg/mL
minimum inhibitory concentration (isolate (source animal id): 237): ≤ 0.25 µg/mL
minimum inhibitory concentration (isolate (source animal id): 241): ≤ 0.25 µg/mL
minimum inhibitory concentration (isolate (source animal id): 252): ≤ 0.25 µg/mL
minimum inhibitory concentration (isolate (source animal id): 253): ≤ 0.25 µg/mL
minimum inhibitory concentration (isolate (source animal id): 259): ≤ 0.25 µg/mL
minimum inhibitory concentration (isolate (source animal id): 260): ≤ 0.25 µg/mL
minimum inhibitory concentration (isolate (source animal id): 262): ≤ 0.25 µg/mL
minimum inhibitory concentration (isolate (source animal id): 282): ≤ 0.25 µg/mL
minimum inhibitory concentration (isolate (source animal id): 287): ≤ 0.25 µg/mL
minimum inhibitory concentration (isolate (source animal id): 288): ≤ 0.25 µg/mL
minimum inhibitory concentration (isolate (source animal id): 291): ≤ 0.25 µg/mL
minimum inhibitory concentration (isolate (source animal id): 293): ≤ 0.25 µg/mL
minimum inhibitory concentration (isolate (source animal id): 298): ≤ 0.25 µg/mL
minimum inhibitory concentration (isolate (source animal id): 299): ≤ 0.25 µg/mL
minimum inhibitory concentration (isolate (source animal id): 300): ≤ 0.25 µg/mL
minimum inhibitory concentration (isolate (source animal id): 302): ≤ 0.25 µg/mL
minimum inhibitory concentration (isolate (source animal id): 304): ≤ 0.25 µg/mL
minimum inhibitory concentration (isolate (source animal id): 306): ≤ 0.25 µg/mL
minimum inhibitory concentration (isolate (source animal id): 308): ≤ 0.25 µg/mL
minimum inhibitory concentration (isolate (source animal id): 309): ≤ 0.25 µg/mL
minimum inhibitory concentration (isolate (source animal id): 313): ≤ 0.25 µg/mL
minimum inhibitory concentration (isolate (source animal id): 318): ≤ 0.25 µg/mL
minimum inhibitory concentration (isolate (source animal id): 320): ≤ 0.25 µg/mL
minimum inhibitory concentration (isolate (source animal id): 321): ≤ 0.25 µg/mL
minimum inhibitory concentration (isolate (source animal id): 323): ≤ 0.25 µg/mL
minimum inhibitory concentration (isolate (source animal id): 324): ≤ 0.25 µg/mL
minimum inhibitory concentration (isolate (source animal id): 326): ≤ 0.25 µg/mL
minimum inhibitory concentration (isolate (source animal id): 328): ≤ 0.25 µg/mL
minimum inhibitory concentration (isolate (source animal id): 329): ≤ 0.25 µg/mL
minimum inhibitory concentration (isolate (source animal id): 333): ≤ 0.25 µg/mL
minimum inhibitory concentration (isolate (source animal id): 335): ≤ 0.25 µg/mL
minimum inhibitory concentration (isolate (source animal id): 338): ≤ 0.25 µg/mL
